Measured values taken from article PMC9070039, “Synthesis and evaluation of antimicrobial activity, cytotoxic and pro-apoptotic effects of novel spiro-4H-pyran derivatives” (RSC Advances, 2019).
≈ marks a conversion by molar mass, not a printed value.

Key:
[1] = test system: S. aureus; test: Disk diffusion antibacterial test; format: cell-based, Staphylococcus aureus; set-up: key to Inhibition zone (mm) S. aureus: —: inactive at concentration 50 mM; conditions: for Sensitivity of S. aureus to compound: there called agar dilution method; for Inhibition zone (mm) S. aureus: disc diffusion test, concentration 50 mM
Method: (§1) Antibacterial effects of spiro[indeno[2,1-c]pyridazine-9,4′-pyran]-3′,4-dicarbonitrile derivatives 5a–j were evaluated in vitro by using disk diffusion method against Gram-positive (S. aureus) and Gram negative (E. coli). The diameter of inhibition zone correlates to the sensitivity of a bacterium to an antibacterial agent. […] E. coli was resistant against all compounds tested (Table 2). Tetracycline and DMSO were used as positive control and negative control respectively. Next, the active compounds were analysed using MIC assay to determine the lowest concentration for inhibition. […] It seems due to the difference in structure of bacterial cell wall (i.e., the presence of outer membrane with lipid, lipopolysaccharide, and lipoprotein content in Gram negative bacteria), E. coli was resistant against the related synthetic compounds.
(§2) Antibacterial activity of the prepared synthetic compounds against the Gram-negative bacteria (E. coli; ATCC: 15922) and the Gram-positive bacteria (S. aureus; PTCC: 1112, International no. ATCC6538P) were examined by disk diffusion assay. Bacterial cultures were obtained from Persian Type Culture Collection, Tehran, Iran (PTCC). Isolated pure colonies from fresh grown bacteria were transferred from the plates into sterile normal saline solution and it was vortexed to form bacterial homogenous suspensions. The turbidity was then adjusted to 0.5 McFarland standard units, and the suspensions were poured over Mueller–Hinton agar (MHA) plates. Sterile filter paper disks were placed over these plates. The sterile disks were impregnated with the tested compounds. Positive control (tetracycline) and negative control ([…]) were used. To determine MIC, the concentrations of tested substance were prepared within the range from 30–5 mM. Incubate in incubator at 37 °C in 24 h for bacteria (Table 2).

[2] = test system: E. coli; test: Disk diffusion antibacterial test; format: cell-based, Escherichia coli; set-up: key: —: inactive at concentration 50 mM; conditions: disc diffusion test, concentration 50 mM
Method: as §1, §2

[3] = test system: S. aureus; test: MIC determination; format: cell-based; conditions: Staphylococcus aureus; read-out: MICs (mM) S. aureus
Method: as §1, §2

[4] = test system: A375 cells; test: MTT cytotoxicity assay; format: cell-based; conditions: Homo sapiens, A-375, 48 h
Method: (§3) At first, in order to compare anti-cancer properties, the synthesized compounds 5a–j were evaluated against A549 cells, MCF-7 cells, A375 cells, PC3 cells, LNCaP cells and HDF cells lines using the MTT colorimetric assay. The activity is expressed as 50% growth inhibitory concentration (IC50) values at 48 h. We used DMSO (1%) as negative control and Etoposide as positive control.
(§4) Human non-small-cell lung cancer A549 cells, human breast cancer MCF-7 cells, human malignant melanoma cells (A375), human prostate cancer cells (PC3 cells, LNCaP cells) and normal cells HDF (human dermal fibroblast) were received from Pasture Institute, Tehran, Iran. MCF-7 cells were grown in RPMI 1640 medium, A549 cells, A375 cells, PC3 cells, LNCaP cells and HDF cells were grown in DMEM medium. All media contain 10% fetal bovine serum (FBS), penicillin G, streptomycin 100 μg mL^−1 and 1% L-glutamine. The cells were cultured and incubated under humidified 5% CO2 atmosphere at 37 °C.
(§5) The effect of compounds treatment on the viability of cancer cell lines was measured by (3-(4,5-dimethylthiazol-2-yl)-2,5-diphenyl tetrazolium bromide or MTT) assay (MTT assay kit, Bio IDEA, CatNo: BI1017, Iran) based on the ability of live cells to cleave the tetrazolium ring to a molecule that absorb at […] as per the manufacturer's instructions.[33] Etoposide (was kindly provided by Dr A. Foroumadi, Tehran medical Science University, Iran) and dimethyl sulfoxide (or DMSO) was used as positive and negative controls, respectively.[34] Briefly, cells were plated in 96-well culture plates (5 × 10^3 cells per well). After 24 h incubation, the cells were treated with different concentrations of the compounds. After 48 h at 37 °C, the medium was removed and 100 μL of MTT reagent (1 mg mL^−1) was added to each well, and cells were further incubated at 37 °C for 4 h. The MTT solution was removed, 50 μL of DMSO was added to each well to dissolve formazan crystals, and the plates were gently shaken for 10 minutes, followed by reading with an ELISA plate reader (BiotekELx 800, USA). The 50% inhibition concentration (IC50) was defined as the concentration that inhibited cell proliferation by 50% when compared to DMSO treated cells (as negative control).

[5] = test system: A549 cells; test: MTT cytotoxicity assay; format: cell-based; conditions: Homo sapiens, 48 h
Method: as §3, §4, §5

[6] = test system: HDF cells; test: MTT cytotoxicity assay; format: cell-based; conditions: 48 h, normal cells (human dermal fibroblast)
Method: as §3, §4, §5

[7] = test system: LNCaP cells; test: MTT cytotoxicity assay; format: cell-based; conditions: Homo sapiens, 48 h
Method: as §3, §4, §5

[8] = test system: MCF-7 cells; test: MTT cytotoxicity assay; format: cell-based; conditions: Homo sapiens, MCF7, 48 h
Method: as §3, §4, §5

[9] = test system: PC3 cells; test: MTT cytotoxicity assay; format: cell-based; conditions: Homo sapiens, PC-3, 48 h
Method: as §3, §4, §5

| Structure (SMILES) | MIC [3] [mM] | melting point [°C] | Sensitivity of S. aureus to compound [1] | Inhibition zone (mm) E. coli [2] | IC50 [4] [µM] | IC50 [5] [µM] | IC50 [6] [µM] | IC50 [7] [µM] | IC50 [8] [µM] | IC50 [9] [µM] | Inhibition zone (mm) S. aureus [1] |
| --- | --- | --- | --- | --- | --- | --- | --- | --- | --- | --- | --- |
| N#CC1=C(N)Oc2[nH]c(=O)[nH]c(=O)c2C12c1ccccc1-c1c2n[nH]c(=O)c1C#N (centres unmarked) [5b, 7′-Amino-2′,3,4′-trioxo-1′,2,2′,3,3′,4′-hexahydrospiro[indeno[2,1-c]pyridazine-9,5′-pyrano[2,3-d]pyrimidine]-4,6′-dicarbonitrile] | 5 (≈ 2000 µg/mL) | 322 to 324 | sensitive | — | > 100 | > 100 | > 100 | > 100 | > 100 | > 100 |  |
| N#CC1=C(N)Oc2[nH]c(=S)[nH]c(=O)c2C12c1ccccc1-c1c2n[nH]c(=O)c1C#N (centres unmarked) [5c, 7′-Amino-3,4′-dioxo-2′-thioxo-1′,2,2′,3,3′,4′-hexahydrospiro[indeno[2,1-c]pyridazine-9,5′-pyrano[2,3-d]pyrimidine]-4,6′-dicarbonitrile] | 50 (≈ 20800 µg/mL) | 305 to 307 | sensitive | — | > 100 | > 100 | > 100 | > 100 | > 100 | > 100 |  |
| CC1(C)CC(=O)C2=C(C1)OC(N)=C(C#N)C21c2ccccc2-c2c1n[nH]c(=O)c2C#N (centres unmarked) [5d, 2-Amino-7,7-dimethyl-3′,5-dioxo-2′,3′,5,6,7,8-hexahydrospiro[chromene-4,9′-indeno[2,1-c]pyridazine]-3,4′-dicarbonitrile] |  | 315 to 318 |  | — | > 100 | > 100 | > 100 | > 100 | > 100 | > 100 | — |
| Cc1nn(-c2ccccc2)c2c1C1(C(C#N)=C(N)O2)c2ccccc2-c2c1n[nH]c(=O)c2C#N (centres unmarked) [5e, 6′-Amino-3′-methyl-3-oxo-1′-phenyl-2,3-dihydro-1′H-spiro[indeno[2,1-c]pyridazine-9,4′-pyrano[2,3-c]pyrazole]-4,5′-dicarbonitrile] | 10 (≈ 4450 µg/mL) |  | sensitive | — | > 100 | > 100 | > 100 | > 100 | > 100 | > 100 |  |
| Cc1n[nH]c2c1C1(C(C#N)=C(N)O2)c2ccccc2-c2c1n[nH]c(=O)c2C#N (centres unmarked) [5f, 6′-Amino-3′-methyl-3-oxo-2,3-dihydro-1′H-spiro[indeno[2,1-c]pyridazine-9,4′-pyrano[2,3-c]pyrazole]-4,5′-dicarbonitrile] | 5 (≈ 1850 µg/mL) |  | sensitive | — | > 100 | > 100 | > 100 | > 100 | > 100 | > 100 |  |
| COC(=O)c1nn(-c2ccccc2)c2c1C1(C(C#N)=C(N)O2)c2ccccc2-c2c1n[nH]c(=O)c2C#N (centres unmarked) [5h, Methyl 6′-amino-4,5′-dicyano-3-oxo-1′-phenyl-2,3-dihydro-1′H-spiro[indeno[2,1-c]pyridazine-9,4′-pyrano[2,3-c]pyrazole]-3′-carboxylate] |  |  |  | — | > 100 | > 100 | > 100 | > 100 | > 100 | > 100 | — |
| COc1cc([C@@H]2c3cc4c(cc3[C@@H](O[C@@H]3O[C@@H]5CO[C@@H](C)O[C@H]5[C@H](O)[C@H]3O)[C@H]3COC(=O)[C@H]23)OCO4)cc(OC)c1O [Etoposide, reference compound] |  |  |  |  | 25.31 ± 0.018 | 60 ± 0.015 | > 100 | 90 ± 0.031 | 30 ± 0.011 | 40 ± 0.062 |  |

Further lines, with some results ahead:

| MIC [3] [mM] | melting point [°C] | Structure (SMILES) | Sensitivity of S. aureus to compound [1] | Inhibition zone (mm) E. coli [2] | IC50 [4] [µM] | IC50 [5] [µM] | IC50 [6] [µM] | IC50 [7] [µM] | IC50 [8] [µM] | IC50 [9] [µM] | Inhibition zone (mm) S. aureus [1] |
| --- | --- | --- | --- | --- | --- | --- | --- | --- | --- | --- | --- |
| 5 (≈ 2400 µg/mL) |  | Cc1nn(-c2cccc(Cl)c2)c2c1C1(C(C#N)=C(N)O2)c2ccccc2-c2c1n[nH]c(=O)c2C#N (centres unmarked) [5g, 6′-Amino-1′-(3-chlorophenyl)-3′-methyl-3-oxo-2,3-dihydro-1′H-spiro[indeno[2,1-c]pyridazine-9,4′-pyrano[2,3-c]pyrazole]-4,5′-dicarbonitrile] | sensitive | — | > 100 | > 100 | > 100 | > 100 | > 100 | > 100 |  |
| 5 (≈ 2170 µg/mL) | 308 to 310 | N#CC1=C(N)Oc2c(c(=O)oc3ccccc23)C12c1ccccc1-c1c2n[nH]c(=O)c1C#N (centres unmarked) [5i, 2′-Amino-3,5′-dioxo-2,3-dihydro-5′H-spiro[indeno[2,1-c]pyridazine-9,4′-pyrano[3,2-c]chromene]-3′,4-dicarbonitrile] | sensitive | — | > 100 | > 100 | > 100 | > 100 | > 100 | > 100 |  |
|  | 298 to 300 | N#CC1=C(N)OC2=C(C(=O)c3ccccc32)C12c1ccccc1-c1c2n[nH]c(=O)c1C#N (centres unmarked) [5j, 2-Amino-3′,5-dioxo-2′,3′-dihydro-5H-spiro[indeno[1,2-b]pyran-4,9′-indeno[2,1-c]pyridazine]-3,4′-dicarbonitrile] |  | — | > 100 | > 100 | > 100 | > 100 | > 100 | > 100 | — |
